The IC50 is the concentration needed to halve the response being measured. Read a low IC50 as inhibition by little substance.

Structures are written as SMILES. ≈ marks a conversion by molar mass, not a printed value.

These results are taken from ChEMBL document CHEMBL5120959, “Pyrrospirones K-Q, Decahydrofluorene-Class Alkaloids from the Marine-Derived Fungus Penicillium sp. SCSIO 41512” (J Nat Prod, 2022).

The test system of test [1] is Staphylococcus aureus. Put plainly: Antibacterial activity against methicillin-resistant Staphylococcus aureus assessed as reduction in microbial growth after 12 hrs by microbroth dilution method. The format is functional.
For test [2], the system named is Staphylococcus aureus. As to the kind of experiment: Antibacterial activity against Staphylococcus aureus ATCC 6538 assessed as reduction in microbial growth after 12 hrs by microbroth dilution method. It is filed as functional. For orientation: Dilution methods test growth across graded concentrations, often in twofold steps.
In a further test the test system is Bacillus subtilis. Put plainly: Antibacterial activity against Bacillus subtilis BS01 assessed as reduction in microbial growth after 12 hrs by microbroth dilution method. The format is functional.
In a further test the test system is Streptococcus agalactiae. Put plainly: Antibacterial activity against Streptococcus agalactiae ATCC 13813 assessed as reduction in microbial growth after 12 hrs by microbroth dilution method. It is filed as functional.
In test [3] the test system is Bacillus amyloliquefaciens. As to the kind of experiment: Antibacterial activity against Bacillus amyloliquefaciens GDMCC 60233 assessed as reduction in microbial growth after 12 hrs by microbroth dilution method. It is filed as functional.
Test [4] has as its target Tyrosine-protein phosphatase non-receptor type 6 (Homo sapiens, UniProt P29350). As to the kind of experiment: Inhibition of human SHP1.
In the next test the test system is Escherichia coli. Put plainly: microbe, parasite or virus in culture. It is filed as functional. To be noted: ATCC 25922, time 12 hrs.

Sequence of Tyrosine-protein phosphatase non-receptor type 6 (P29350 whole entry): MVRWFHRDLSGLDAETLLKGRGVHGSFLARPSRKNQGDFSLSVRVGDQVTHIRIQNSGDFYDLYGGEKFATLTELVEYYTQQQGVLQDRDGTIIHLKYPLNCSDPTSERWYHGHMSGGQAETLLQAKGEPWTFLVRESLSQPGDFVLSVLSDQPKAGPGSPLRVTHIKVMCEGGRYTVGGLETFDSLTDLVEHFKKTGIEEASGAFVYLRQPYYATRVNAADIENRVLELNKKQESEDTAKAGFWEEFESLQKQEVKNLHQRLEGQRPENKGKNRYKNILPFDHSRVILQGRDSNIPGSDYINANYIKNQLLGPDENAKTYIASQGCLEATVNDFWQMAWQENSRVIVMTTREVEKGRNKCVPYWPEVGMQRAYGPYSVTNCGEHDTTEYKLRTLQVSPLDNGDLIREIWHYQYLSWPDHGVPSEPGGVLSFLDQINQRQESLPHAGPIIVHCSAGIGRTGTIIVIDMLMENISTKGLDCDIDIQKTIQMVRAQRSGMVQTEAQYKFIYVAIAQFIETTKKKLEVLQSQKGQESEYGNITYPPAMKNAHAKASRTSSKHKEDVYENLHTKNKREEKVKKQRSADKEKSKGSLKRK
Description for Escherichia coli: Antibacterial activity against Escherichia coli ATCC 25922 assessed as reduction in microbial growth after 12 hrs by microbroth dilution method

In the case of `CN[C@@H]1[C@@H](O)[C@@H](O[C@@H]2[C@@H](O)[C@H](O[C@H]3O[C@H](CN)CC[C@H]3N)[C@@H](N)C[C@H]2N)OC[C@]1(C)O.O=S(=O)(O)O`, the MIC with Staphylococcus aureus [1] worked out at 5 µg/mL; in the test on Staphylococcus aureus [2], 2 µg/mL; in the test with Bacillus subtilis it was 0.5 µg/mL; in the test with Streptococcus agalactiae, 10 µg/mL; in test [3], 1 µg/mL.

For `CC(=O)c1ccc(NC2=C(Cl)C(=O)c3ccccc3C2=O)cc1`, in test [4], the IC50 is 290 nM.

For the compound `C[C@@H]1C[C@H](C)[C@H]2[C@H]3Oc4ccc(cc4)C[C@]4(O)C/C(=C(/O)[C@H]5[C@H](C)[C@H]6O[C@@]6(C)[C@H]([C@H]35)[C@]2(C)C1)C(=O)N4`, the MIC was determined as 50 µg/mL in the test on Staphylococcus aureus [1]; 50 µg/mL in the test with Staphylococcus aureus [2]; 20 µg/mL in the test on Bacillus subtilis; 20 µg/mL (≈ 40.5 µM) in the test with Escherichia coli; 50 µg/mL in the test with Streptococcus agalactiae; 20 µg/mL in test [3].

As for `CO[C@@H]1C2Cc3ccc(cc3)O[C@H]3[C@H]4[C@@H](C(C)=C[C@]5(C)CC[C@@]1(C(=O)N2)C(=O)[C@H]45)[C@]1(C)C[C@H](C)C[C@H](C)[C@@H]31`, the MIC (in the test with Staphylococcus aureus [1]; with Staphylococcus aureus [2]; in the test with Bacillus subtilis; with Escherichia coli; in the test on Streptococcus agalactiae; in test [3]) was greater than 100 µg/mL in each case.
